IC50 data for 27 molecules are collected here from patent publication US7517873B2, “Substituted pyrimidodiazepines” (Hoffman-La Roche Inc., priority 2007, dated 2009).

pIC50: −log10 of the molar value. Some results are limits rather than exact numbers.

A word on the pIC50: it is the IC50 on a negative log10 scale, so that one unit is a factor of ten.

T1 sequence (P53350 whole entry): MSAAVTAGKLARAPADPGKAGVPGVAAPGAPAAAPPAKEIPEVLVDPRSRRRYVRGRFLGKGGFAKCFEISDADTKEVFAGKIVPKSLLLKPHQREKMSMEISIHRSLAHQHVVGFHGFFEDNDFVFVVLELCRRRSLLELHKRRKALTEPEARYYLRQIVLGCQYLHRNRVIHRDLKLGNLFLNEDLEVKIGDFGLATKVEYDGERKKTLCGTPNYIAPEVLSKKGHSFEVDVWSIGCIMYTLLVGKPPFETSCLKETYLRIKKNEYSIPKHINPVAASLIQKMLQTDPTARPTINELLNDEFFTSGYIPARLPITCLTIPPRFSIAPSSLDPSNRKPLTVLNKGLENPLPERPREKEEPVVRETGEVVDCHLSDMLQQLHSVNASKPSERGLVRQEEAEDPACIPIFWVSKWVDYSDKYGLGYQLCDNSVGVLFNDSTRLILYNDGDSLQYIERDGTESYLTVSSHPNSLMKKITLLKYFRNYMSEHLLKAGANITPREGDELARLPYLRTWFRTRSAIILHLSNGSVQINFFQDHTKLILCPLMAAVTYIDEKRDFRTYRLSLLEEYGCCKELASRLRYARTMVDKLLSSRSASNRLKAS

This test concerns the target T1, GST-PLK1 (Homo sapiens, UniProt P53350).
T1 construct: Full-length, active GST-PLK1 is purified from Sf9 insect cells; made in house; host or cells: Sf9 insect cells
Description: Biochemical Characterization Assay: GST-PLK1 kinase HTRF assay with GST-p53 substrate. Conditions: full-length GST-PLK1, GST-p53 and ATP, 37° C. for 35 minutes, HTRF signal. As to the method: Biochemical Characterization Assay
Full-length, active GST-PLK1 is purified from Sf9 insect cells, and full-length GST-p53 is purified from E. coli. Anti-phospho p53 antibody is from Cell Signaling Technology. Europium-conjugated anti-rabbit antibody is from PerkinElmer Life and Analytical Sciences. APC-conjugated anti-GST antibody is from Prozyme.
To assay compounds of the invention, two microliters of test compound (0.6 nM-4 mM) in DMSO or plain DMSO for control wells, 38 microliters of 20 mM HEPES pH 7, 50 mM NaCl, 10 mM MgCl2, 0.5 mM TCEP, 0.1 mM sodium orthovanadate, 0.1 mg/mL BSA, and 0.05% Triton X-100 (Kinase Assay Buffer) are added. […] Six microliters of GST-PLK1 (3 ug/mL) in Kinase Assay Buffer are then added and the solution incubated at 37° C. for 35 minutes. Six microliters of solution containing 43 mM EDTA to stop the reaction and a 1:600 dilution of anti-phospho-p53 antibody in 20 mM HEPES pH 7, 50 mM NaCl, and 0.5 mg/mL BSA (Antibody Binding Buffer) are added and the solution incubated at 37° C. for 30 minutes. […] The HTRF signal is read on an Envision reader from PerkinElmer Life and Analytical Sciences.
(Time-resolved FRET reads energy transfer from a long-lived donor to a nearby acceptor.)
Regarding `CC1CN(C2CCCC2)c2nc(Nc3ccc(C(=O)NCCN(C)C)c(Cl)c3)ncc2N(C)C1=O` (racemic) [I-87, (rac)-2-Chloro-4-(9-cyclopentyl-5,7-dimethyl-6-oxo-6,7,8,9-tetrahydro-5H-pyrimido[4,5-b][1,4]diazepin-2-ylamino)-N-(2-dimethylamino-ethyl)-benzamide], the pIC50 was 5.30 to 6.30.
Consider `CC1CN(C2CCCC2)c2nc(Nc3ccc(C(=O)NC4CCOCC4)c(Cl)c3)ncc2N(C)C1=O` (racemic) [I-88, (rac)-2-Chloro-4-(9-cyclopentyl-5,7-dimethyl-6-oxo-6,7,8,9-tetrahydro-5H-pyrimido[4,5-b][1,4]diazepin-2-ylamino)-N-(tetrahydro-pyran-4-yl)-benzamide], for which the pIC50 was 5.30 to 6.30.
Consider `CCN1CCC(NC(=O)c2cccc(Nc3ncc4c(n3)N(C3CCCC3)CC(C)C(=O)N4C)c2)CC1` (racemic) [I-89, (rac)-3-(9-Cyclopentyl-5,7-dimethyl-6-oxo-6,7,8,9-tetrahydro-5H-pyrimido[4,5-b][1,4]diazepin-2-ylamino)-N-(1-ethyl-piperidin-4-yl)-benzamide], for which the negative logarithm of the IC50 (pIC50) was 5.30 to 6.30.
In the case of `COCCCNC(=O)c1cccc(Nc2ncc3c(n2)N(C2CCCC2)CC(C)C(=O)N3C)c1` (racemic) [I-90, (rac)-3-(9-Cyclopentyl-5,7-dimethyl-6-oxo-6,7,8,9-tetrahydro-5H-pyrimido[4,5-b][1,4]diazepin-2-ylamino)-N-(3-methoxy-propyl)-benzamide] it was 5.30 to 6.30.
The same measure for `CC1CN(C2CCCC2)c2nc(Nc3cccc(C(=O)NC4CCCCC4)c3)ncc2N(C)C1=O` (racemic) [I-91, (rac)-N-Cyclohexyl-3-(9-cyclopentyl-5,7-dimethyl-6-oxo-6,7,8,9-tetrahydro-5H-pyrimido[4,5-b][1,4]diazepin-2-ylamino)-benzamide]: under 5.30; for `CC1CN(C2CCCC2)c2nc(Nc3cccc(C(=O)Nc4ccncc4)c3)ncc2N(C)C1=O` (racemic) [I-92, (rac)-3-(9-Cyclopentyl-5,7-dimethyl-6-oxo-6,7,8,9-tetrahydro-5H-pyrimido[4,5-b][1,4]diazepin-2-ylamino)-N-pyridin-4-yl-benzamide]: under 5.30.
In turn, `CC1CN(C2CCCC2)c2nc(Nc3cccc(C(=O)NCCN(C)C)c3)ncc2N(C)C1=O` (racemic) [I-93, (rac)-3-(9-Cyclopentyl-5,7-dimethyl-6-oxo-6,7,8,9-tetrahydro-5H-pyrimido[4,5-b][1,4]diazepin-2-ylamino)-N-(2-dimethylamino-ethyl)-benzamide] gave a negative-log IC50 (pIC50) of 5.30 to 6.30.
As for `COc1cc(C(=O)NC2CCN(C)CC2)ccc1Nc1ncc2c(n1)N(C1CCCC1)C[C@@H](C)C(=O)N2C` [I-2a, 7R-4-(9-Cyclopentyl-5,7-dimethyl-6-oxo-6,7,8,9-tetrahydro-5H-pyrimido[4,5-b][1,4]diazepin-2-ylamino)-3-methoxy-N-(1-methyl-piperidin-4-yl)-benzamide], the pIC50 was over 6.30.
For the molecule `COc1cc(C(=O)NC2CCN(C)CC2)ccc1Nc1ncc2c(n1)N(C1CCCC1)C[C@H](C)C(=O)N2C` [I-2b, 7S-4-(9-cyclopentyl-5,7-dimethyl-6-oxo-6,7,8,9-tetrahydro-5H-pyrimido[4,5-b][1,4]diazepin-2-ylamino)-3-methoxy-N-(1-methyl-piperidin-4-yl)-benzamide], the pIC50 is over 6.30.
Regarding `COc1cc(C(=O)NC2CCN(C)CC2)ccc1Nc1ncc2c(n1)N(C1CCCC1)CCC(=O)N2` [I-21, 4-(9-Cyclopentyl-6-oxo-6,7,8,9-tetrahydro-5H-pyrimido[4,5-b][1,4]diazepin-2-ylamino)-3-methoxy-N-(1-methyl-piperidin-4-yl)-benzamide], the negative logarithm of the IC50 (pIC50) is 5.30 to 6.30.
Regarding `COc1cc(C(=O)NC2CCN(C)CC2)ccc1Nc1ncc2c(n1)N(Cc1ccccc1)CCC(=O)N2C` [I-22, 4-(9-Benzyl-5-methyl-6-oxo-6,7,8,9-tetrahydro-5H-pyrimido[4,5-b][1,4]diazepin-2-ylamino)-3-methoxy-N-(1-methyl-piperidin-4-yl)-benzamide], the pIC50 is 5.30 to 6.30.
Regarding `COc1cc(C(=O)NC2CCN(C)CC2)ccc1Nc1ncc2c(n1)N(C1CCC1)CCC(=O)N2C` [I-24, 4-(9-Cyclobutyl-5-methyl-6-oxo-6,7,8,9-tetrahydro-5H-pyrimido[4,5-b][1,4]diazepin-2-ylamino)-3-methoxy-N-(1-methyl-piperidin-4-yl)-benzamide], the negative-log IC50 (pIC50) is over 6.30.
For `COc1ccccc1Nc1ncc2c(n1)N(C1CCC1)CCC(=O)N2C` [I-25, 9-Cyclobutyl-2-(2-methoxy-phenylamino)-5-methyl-5,7,8,9-tetrahydro-pyrimido[4,5-b][1,4]diazepin-6-one], the pIC50 was under 5.30.
`COc1cc(C(=O)Nc2ccccc2)ccc1Nc1ncc2c(n1)N(C1CCCCC1)CCC(=O)N2` [I-28, 4-(9-Cyclohexyl-6-oxo-6,7,8,9-tetrahydro-5H-pyrimido[4,5-b][1,4]diazepin-2-ylamino)-3-methoxy-N-phenyl-benzamide] gave a pIC50 of under 5.30.
With `COc1cc(C(=O)NC2CCN(C)CC2)ccc1Nc1ncc2c(n1)N(C1CCCCC1)CCC(=O)N2` [I-29, 4-(9-Cyclohexyl-6-oxo-6,7,8,9-tetrahydro-5H-pyrimido[4,5-b][1,4]diazepin-2-ylamino)-3-methoxy-N-(1-methyl-piperidin-4-yl)-benzamide], the negative logarithm of the IC50 (pIC50) was 5.30 to 6.30.
The molecule `CCCNC(=O)c1ccc(Nc2ncc3c(n2)N(C2CCCCC2)CCC(=O)N3)c(OC)c1` [I-30, 4-(9-Cyclohexyl-6-oxo-6,7,8,9-tetrahydro-5H-pyrimido[4,5-b][1,4]diazepin-2-ylamino)-3-methoxy-N-propyl-benzamide] gave a pIC50 of under 5.30.
The molecule `COc1cc(C(=O)N2CCOCC2)ccc1Nc1ncc2c(n1)N(C1CCCCC1)CCC(=O)N2` [I-31, 9-Cyclohexyl-2-[2-methoxy-4-(morpholine-4-carbonyl)-phenylamino]-5,7,8,9-tetrahydro-pyrimido[4,5-b][1,4]diazepin-6-one] had a pIC50 of under 5.30.
The molecule `COc1cc(C(=O)N2CCCCC2)ccc1Nc1ncc2c(n1)N(C1CCCCC1)CCC(=O)N2` [I-32, 9-Cyclohexyl-2-[2-methoxy-4-(piperidine-1-carbonyl)-phenylamino]-5,7,8,9-tetrahydro-pyrimido[4,5-b][1,4]diazepin-6-one] gave a pIC50 of under 5.30.
In the case of `COc1cc(C(=O)NC2CCOCC2)ccc1Nc1ncc2c(n1)N(C1CCCCC1)CCC(=O)N2` [I-33, 4-(9-Cyclohexyl-6-oxo-6,7,8,9-tetrahydro-5H-pyrimido[4,5-b][1,4]diazepin-2-ylamino)-3-methoxy-N-(tetrahydro-pyran-4-yl)-benzamide] it was under 5.30; in that of `COc1cc(C(N)=O)ccc1Nc1ncc2c(n1)N(C1CCC1)CCC(=O)N2C` [I-34, 4-(9-Cyclobutyl-5-methyl-6-oxo-6,7,8,9-tetrahydro-5H-pyrimido[4,5-b][1,4]diazepin-2-ylamino)-3-methoxy-benzamide], 5.30 to 6.30; in that of `COc1cc(C(=O)N(C)C)ccc1Nc1ncc2c(n1)N(C1CCC1)CCC(=O)N2C` [I-35, 4-(9-Cyclobutyl-5-methyl-6-oxo-6,7,8,9-tetrahydro-5H-pyrimido[4,5-b][1,4]diazepin-2-ylamino)-3-methoxy-N,N-dimethyl-benzamide], under 5.30.
Molecule `COc1cc(C(=O)NCCCn2ccnc2)ccc1Nc1ncc2c(n1)N(C1CCC1)CCC(=O)N2C` [I-36, 4-(9-Cyclobutyl-5-methyl-6-oxo-6,7,8,9-tetrahydro-5H-pyrimido[4,5-b][1,4]diazepin-2-ylamino)-N-(3-imidazol-1-yl-propyl)-3-methoxy-benzamide] had a pIC50 of over 6.30.
On to `COc1cc(C(=O)Nc2ccncc2)ccc1Nc1ncc2c(n1)N(C1CCC1)CCC(=O)N2C` [I-37, 4-(9-Cyclobutyl-5-methyl-6-oxo-6,7,8,9-tetrahydro-5H-pyrimido[4,5-b][1,4]diazepin-2-ylamino)-3-methoxy-N-pyridin-4-yl-benzamide], for which the negative logarithm of the IC50 (pIC50) was over 6.30.
The same measure for `COc1cc(C(=O)NC2CCN(C)CC2)ccc1Nc1ncc2c(n1)N(C1CCCC1)CC(C)(C)C(=O)N2C` [I-39, 4-(9-Cyclopentyl-5,7,7-trimethyl-6-oxo-6,7,8,9-tetrahydro-5H-pyrimido[4,5-b][1,4]diazepin-2-ylamino)-3-methoxy-N-(1-methyl-piperidin-4-yl)-benzamide]: over 6.30; for `COCCN1CCC(=O)N(C)c2cnc(Nc3ccc(C(=O)NC4CCN(C)CC4)cc3OC)nc21` [I-40, 3-Methoxy-4-[9-(2-methoxy-ethyl)-5-methyl-6-oxo-6,7,8,9-tetrahydro-5H-pyrimido[4,5-b][1,4]diazepin-2-ylamino]-N-(1-methyl-piperidin-4-yl)-benzamide]: 5.30 to 6.30.
The same measure for `COc1cc(C(=O)NC2CCN(C)CC2)ccc1Nc1ncc2c(n1)N(C(C)C)CCC(=O)N2C` [I-43, 4-(9-Isopropyl-5-methyl-6-oxo-6,7,8,9-tetrahydro-5H-pyrimido[4,5-b][1,4]diazepin-2-ylamino)-3-methoxy-N-(1-methyl-piperidin-4-yl)-benzamide]: over 6.30; for `CCCCN1CCC(=O)N(C)c2cnc(Nc3ccc(C(=O)NC4CCN(C)CC4)cc3OC)nc21` [I-44, 4-(9-Butyl-5-methyl-6-oxo-6,7,8,9-tetrahydro-5H-pyrimido[4,5-b][1,4]diazepin-2-ylamino)-3-methoxy-N-(1-methyl-piperidin-4-yl)-benzamide]: over 6.30.
